Laboratory results reported in PMC6625639 (Biochemical pharmacology, 2018).
pKi: −log10 of the molar value.

Key:
SULT2A1 = biological target: T1, SULT2A1 (Homo sapiens, UniProt Q06520); format: biochemical
T1 sequence (Q06520 1-285): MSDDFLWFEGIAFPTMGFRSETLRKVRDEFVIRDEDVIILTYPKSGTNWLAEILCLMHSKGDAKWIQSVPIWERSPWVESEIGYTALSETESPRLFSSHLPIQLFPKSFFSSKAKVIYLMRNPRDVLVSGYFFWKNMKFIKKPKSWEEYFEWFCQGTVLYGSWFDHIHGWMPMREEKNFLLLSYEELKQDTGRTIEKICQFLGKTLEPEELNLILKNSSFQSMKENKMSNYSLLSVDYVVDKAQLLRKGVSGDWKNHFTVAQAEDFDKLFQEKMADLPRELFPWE

SULT1A1 = SULT1A1 (Homo sapiens, UniProt P50225); format: biochemical
Chain of SULT1A1 (P50225 whole entry): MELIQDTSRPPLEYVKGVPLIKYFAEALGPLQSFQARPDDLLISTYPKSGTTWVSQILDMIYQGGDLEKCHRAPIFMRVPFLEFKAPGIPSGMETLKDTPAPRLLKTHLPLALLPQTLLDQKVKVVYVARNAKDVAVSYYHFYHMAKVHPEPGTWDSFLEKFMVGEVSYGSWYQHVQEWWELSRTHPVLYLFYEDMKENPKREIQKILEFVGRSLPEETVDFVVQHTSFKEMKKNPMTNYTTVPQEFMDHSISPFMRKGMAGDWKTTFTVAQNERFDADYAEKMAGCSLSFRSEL

Cc1cccc(Nc2ccccc2C(=O)O)c1C [Mef, Mefenamic acid]
pKi (SULT2A1): 4.85
pKi (SULT1A1): 7.57
